Columns and labels:
Kv7.2 = target: T1, Kv7.2 (Homo sapiens, UniProt O43526); test: Whole-cell patch-clamp on CHO cells transiently expressing Kv7.2; type: cell-based; settings: CHO cells, mean±SEM, >1 activating, <1 inhibiting; for Idrug/Ictl at 0 mV: ratio of ramp-evoked Kv7.2 current amplitude in presence and absence of drug at 0 mV; for Idrug/Ictl at -40 mV: ratio of ramp-evoked Kv7.2 current amplitude in presence and absence of drug at -40 mV
T1 construct: expressed in transfected cells; host or cells: CHO cells (ATCC CRL-9618), transient transfection, pcDNA3.1(+)
Experimental: According to the experimental protocol, these plasmids were expressed individually or in combination (in particular of Kv7.2 and Kv7.3), together with a plasmid-expressing enhanced green fluorescent protein (Clontech, Palo Alto, CA) used as a transfection marker. Total cDNA in the transfection mixture was kept at 4 µg. CHO cells were grown in 100-mm plastic Petri dishes in Dulbecco's modified Eagle's medium containing 10% fetal bovine serum, nonessential amino acids (0.1 mM), penicillin (50 U/ml), and streptomycin ([…]) in a humidified atmosphere at 37°C with 5% CO2. The cells were plated on glass coverslips coated with poly-L-lysine, and transfected one day after plating with the appropriate cDNA using Lipofectamine 2000 (Life Technologies), according to the manufacturer's protocol.
Currents from CHO cells were recorded at room temperature (20-22°C) 24 hours after trasfection using the whole-cell configuration of the patch-clamp technique, with glass micropipettes of 3-5 MΩ resistance. During the recording, constant perfusion of extracellular solution was maintained. The extracellular solution contained (in mM): 138 NaCl, 2 CaCl2, 5.4 KCl, 1 MgCl2, 10 glucose, and 10 HEPES, at pH 7.4, adjusted with NaOH. The pipette (intracellular) solution contained (in mM): 140 KCl, 2 MgCl2, 10 EGTA, 10 HEPES, 5 Mg^2+-ATP, at pH 7.3-7.4, adjusted with KOH. Currents were recorded using an Axopatch-200A amplifier, filtered at 5 kHz, and digitized using a DigiData 1440A (Molecular Devices). The pCLAMP software (version 10.2, Molecular Devices) was used for data acquisition and analysis. To evaluate the activity of exemplary compounds on Kv7.2 (see Table 1), as well as on Kv7.1, Kv7.2/7.3, Kv7.3 and Kv7.4 channels for selected compounds (see Table 2), the cells were clamped at -80 mV and currents were elicited by 3-s voltage ramps from -80 mV to +20 mV in the presence and absence of each compound. […] The effects of drugs were expressed as shift in the ramp-voltage (ΔV) calculated at 20% of the maximal current (Miceli et al, Proc Natl Acad Sci U S A. 2013, 110(11):4386-91). Curves were fitted using the following equation: y=max/(1+x/EC50)n, where x is the drug concentration, n is the Hill coefficient and max is the maximal value achieved, as previously described (Ambrosino et al, Br J Pharmacol. 2013, 168(6):1430-1444). Data analysis and fit were performed using Sigmaplot (version 12.3).
Ramp-evoked Kv7.2 currents were analyzed by measuring the currents at -40 mV (a membrane potential value close to the activation threshold) and at 0 mV (a membrane potential value at which Kv7.2 conductance is largely saturated). In particular, -40 mV represents the threshold potential for spike initiation and 0 mV represents instead the membrane potential value at which maximal conductance of the channel is achieved.
In Table 1, the effect of exemplary compounds of the invention is expressed as the ratio between current amplitude in the presence (Idrug) and absence (Ictl) of the drug at these two membrane voltages. […]

[1] = Solution stability (HPLC, extracellular solution, ambient temperature); type: physicochemical; settings: percentage of degradation after 6 h at ambient temperature; 100 ppm in extracellular solution pH 7.4
Experimental: (§1) In order to study the solution stability and photostability of the potassium channel modulators object of the present invention, a stock solution of the proper analyte (1 mg/mL) in dimethylsulfoxide (DMSO) has been prepared. This solution has been then diluted to a concentration of 100 ppm using extracellular solution containing (in mM): 138 NaCl, 2 CaCl2, 5.4 KCl, 1 MgCl2, 10 glucose, and 10 HEPES, at pH 7.4, adjusted with NaOH. To measure solution stability, the diluted solutions have been maintained at ambient temperature for 6 h. To measure photostability, the diluted solutions have been irradiated for 6 h using a Oriel Sol3A Solar Simulator (Newport corporation, Irvine, CA, USA) with a 12x12 inches output beam. Aliquots of solution have been withdrawn after 6h and analyzed by HPLC using a Kinetex C18, 150 mm × 4.6 mm × 2.6 µm (Phenomenex, Bologna, Italy) as stationary phase and a mobile phase constituted by A: H2O/CH3CN (80:20) and B: CH3CN. Gradient elution has been performed from 20% to 90% of B in 7.50 minutes and from 90% to 20% of B in 1 minute. The pump flux has been set to 1.5 mL/min. Column has been thermostatted at 40°C during analysis. Results are espressed in Table 3 as percentage of degradation of the product calculated as ratio between the peak area of the analyte at time 0 (Pa0) and after 6h (Pa6) using the following formula: % degradation = (Pa0−Pa6)/Pa0 *100. [formula]

[2] = Photostability (HPLC, solar simulator irradiation); type: physicochemical; settings: percentage of degradation after 6 h irradiation with solar simulator; 100 ppm in extracellular solution pH 7.4
Experimental: as §1

Structure (SMILES) | Idrug/Ictl at 0 mV (Kv7.2) | Idrug/Ictl at -40 mV (Kv7.2) | Solution stability [1] | Photostability [2]
O=S(=O)(Nc1ccc2c(ccn2Cc2ccc(C(F)(F)F)cc2)c1)C1CCCCC1 [N-(1-(4-(trifluoromethyl)benzyl)-1H-indol-5-yl)cyclohexanesulfonamide] | 1.93±0.19 | 2.27±0.49 | A (degradation lower than 20%) | A (degradation lower than 20%)
O=S(=O)(Nc1ccc2c(c1)CCN2Cc1ccc(C(F)(F)F)cc1)C1CCCCC1 [N-(1-(4-(trifluoromethyl)benzyl)indolin-5-yl)cyclohexanesulfonamide] | 2.37±0.58 | 3.2±0.20 | C (degradation > 40%) | C (degradation > 40%)
O=[N+]([O-])c1cc(Br)ccc1CN1CCc2cc(NS(=O)(=O)C3CCCCC3)ccc21 [N-(1-(4-bromo-2-nitrobenzyl)indolin-5-yl)cyclohexanesulfonamide] | 3.09±0.52 | 7.27±1.32 | B (20%< degradation<40%) | C (degradation > 40%)
O=C(c1ccc(F)cc1)N1CCc2cc(NS(=O)(=O)C3CCCCC3)ccc21 [N-(1-(4-fluorobenzoyl)indolin-5-yl)cyclohexanesulfonamide] | 1.22±0.07 | 1.85±0.30 | A (degradation lower than 20%) | B (20%< degradation<40%)
O=S(=O)(Nc1ccc2c(ccn2Cc2ccc(F)cc2)c1)C1CCCCC1 [N-(1-(4-fluorobenzyl)-1H-indol-5-yl)cyclohexanesulfonamide] | 2.76±0.19 | 4.71±1.31 | A (degradation lower than 20%) | A (degradation lower than 20%)
CC(C)CS(=O)(=O)Nc1ccc2c(c1)CCN2Cc1ccc(F)cc1 [N-(1-(4-fluorobenzyl)indolin-5-yl)-2-methylpropane-1-sulfonamide] | 1.93±0.32 | 2.55±0.79 | C (degradation > 40%) | C (degradation > 40%)
CC1CC(C)CN(S(=O)(=O)Nc2ccc3c(c2)CCN3Cc2ccc(F)cc2)C1 (stereo not shown) [N-(1-(4-fluorobenzyl)indolin-5-yl)-3,5-dimethylpiperidine-1-sulfonamide] | 1.87±0.22 | 1.91±0.44 | B (20%< degradation<40%) | B (20%< degradation<40%)
CN1CCN(S(=O)(=O)Nc2ccc3c(c2)CCN3Cc2ccc(F)cc2)CC1 [N-(1-(4-fluorobenzyl)indolin-5-yl)-4-methylpiperazine-1-sulfonamide] | 0.95±0.07 | 1.25±0.19 | B (20%< degradation<40%) | B (20%< degradation<40%)
CC(=O)Nc1ccc2c(c1)CCN2Cc1ccc(F)cc1 [N-(1-(4-fluorobenzyl)indolin-5-yl)acetamide] | 1.64±0.20 | 1.88±0.14 | A (degradation lower than 20%) | A (degradation lower than 20%)
O=S(=O)(Nc1ccc2c(c1)CCN2Cc1ccc(F)cc1)N1CCCCCC1 [N-(1-(4-fluorobenzyl)indolin-5-yl)azepane-1-sulfonamide] | 0.98±0.11 | 0.89±0.12 | B (20%< degradation<40%) | B (20%< degradation<40%)
O=S(=O)(Nc1ccc2c(c1)CCN2Cc1ccc(F)cc1)c1ccccc1 [N-(1-(4-fluorobenzyl)indolin-5-yl)benzenesulfonamide] | 0.64±0.14 | 1.15±0.28 | A (degradation lower than 20%) | B (20%< degradation<40%)
CCCCS(=O)(=O)Nc1ccc2c(c1)CCN2Cc1ccc(F)cc1 [N-(1-(4-fluorobenzyl)indolin-5-yl)butane-1-sulfonamide] | 1.55±0.12 | 2.03±0.19 | C (degradation > 40%) | C (degradation > 40%)
O=C(Nc1ccc2c(c1)CCN2Cc1ccc(F)cc1)C1CCCCC1 [N-(1-(4-fluorobenzyl)indolin-5-yl)cyclohexanecarboxamide] | 0.66±0.07 | 1.32±0.21 | A (degradation lower than 20%) | B (20%< degradation<40%)
CCCCCCS(=O)(=O)Nc1ccc2c(c1)CCN2Cc1ccc(F)cc1 [N-(1-(4-fluorobenzyl)indolin-5-yl)hexane-1-sulfonamide] | 2.18±0.09 | 2.48±0.20 | B (20%< degradation<40%) | C (degradation > 40%)
O=S(=O)(Nc1ccc2c(c1)CCN2CCc1ccc(F)cc1)C1CCCCC1 [N-(1-(4-fluorophenethyl)indolin-5-yl)cyclohexanesulfonamide] | 1.37±0.17 | 3.24±1.52 | C (degradation > 40%) | C (degradation > 40%)
COc1ccc(Cn2ccc3cc(NS(=O)(=O)C4CCCCC4)ccc32)cc1 [N-(1-(4-methoxybenzyl)-1H-indol-5-yl)cyclohexanesulfonamide] | 1.63±0.06 | 2.00±0.36 | A (degradation lower than 20%) | A (degradation lower than 20%)
COc1ccc(CN2c3ccc(NS(=O)(=O)C4CCCCC4)cc3CC2C)cc1 (stereo not shown) [N-(1-(4-methoxybenzyl)-2-methylindolin-5-yl)cyclohexanesulfonamide] | 0.92±0.13 | 1.13±0.15 | B (20%< degradation<40%) | C (degradation > 40%)
COc1ccc(CN2CCc3cc(NS(=O)(=O)C4CCCCC4)ccc32)cc1 [N-(1-(4-methoxybenzyl)indolin-5-yl)cyclohexanesulfonamide] | 4.24±0.83 | 6.43±1.51 | C (degradation > 40%) | C (degradation > 40%)
CCCCCCC(=O)Nc1ccc(NCc2ccc(C(F)(F)F)cc2)c(F)c1N [N-(2-amino-3-fluoro-4-((4-(trifluoromethyl)benzyl)amino)phenyl)heptanamide] | 1.94±0.12 | 5.76±1.28 | A (degradation lower than 20%) | A (degradation lower than 20%)

Reference: EP3917907B1, “MODULATORS OF POTASSIUM ION CHANNELS AND USES THEREOF” (Universitá Degli Studi Di Salerno, priority 2019, dated 2020)
